# Where two headings read alike, the source gives them in different places.
# Legend:
# MEC1 CLL cell line [1] = test: alamarBlue assay, in vitro antileukaemic activity against MEC1 CLL cell line; type: cell-based
# Description: Defective p53-signalling increases genomic instability and drives tumour progression. A high frequency of p53 inactivation is found in relapsed, treatment-resistant, high risk CLL.[30] […] Owing to resource availability a subset of up to ten of these compounds was prioritised for further investigation. Compounds 2d, 2e, 2j, 2aa, 5a, 5d, 5e, 5f, 5ab and 6b were selected on the basis of reasons including ease of synthetic access, diversity across the chemical space probed and novelty. Those prepared under conditions (i)Scheme 1 (2d, 5a and 6b) were available on a scale and in a purity to directly permit follow-up studies, whereas compounds prepared under conditions (ii)Scheme 1 were prepared on a small scale so were resynthesised. These seven compounds (2e, 2j, 2aa, 5d, 5e, 5f and 5ab) were isolated on >30 mg scale in high purity and progressed to more following studies.
# Following the identification of 5f as the most promising drug-like derivative of PTL from the aforementioned parallel/high-throughput screening, the anti-leukaemic activity of 5f was tested once more and compared directly with that of PTL (1) and DMAPT (2a), which serve as comparators and positive controls.
# Amine 7 was successfully prepared as follows: 4-Piperidinecarboxylic acid was N-Boc protected to deliver 8 in 92% yield.[43] In order to confidently assign the NMR spectra of compound 8 J-MOD, HSQC and ^1H–^1H COSY were helpful, particularly in establishing that a broad resonance in the proton-decoupled ^13C NMR spectrum, centred on 42.8 ppm, corresponds to the ring-carbons bonded to nitrogen. The carboxylic acid of 8 was converted to the corresponding ethyl-3-keto-propanoate 9 in 24% yield. Conversion of 9 to the N-Boc protected congener 10, was achieved by treatment with acetamidine hydrochloride and potassium carbonate, furnishing 10 in 77% yield. Treatment with trifluoroacetic acid delivered desired compound 7 in 99% yield for the Boc-deprotection step (scale 200 mg, 17% over four linear steps). Thus, evidencing accessibility of amine 7 and with it in hand, it was timely to probe any activity arising from the amine alone. MEC1 sensitivity to 1, 5f and 7 was compared in parallel using the alamarBlue® assay (Fig. 6). […] A pre-peer-reviewed preprint of this article was deposited and may be viewed elsewhere.[44]
# [2] = Stability in aqueous solution, pH 7.4; type: physicochemical; conditions: for half-life: pH 7.4, read-out: Stability pH 7.4 T1/2; for stability in aqueous solution: result in words
# Procedure: Compounds 2d, 2e, 2f, 2g, 2j, 2aa, 5a, 5d, 5e, 5f, 5ab and 6b were subjected to in vitro DMPK testing. […] The other three (2d, 2j and 2aa) were not retained for further investigation due to poor stability (T1/2 at pH 7.4: 13, 107 and 76 min, Table 1, entries 1, 3 and 4 respectively). One obvious aspect contributing to observed stability is the propensity for PTL derivatives of this type to undergo a retro-amination (reverse-Michael-type mechanism), indeed this reverse reaction is often claimed as a pro-drug mode of action.[29a],[33] […] It is a reasonable assertion that activity observed for these unstable compounds could well be ascribed to free PTL generated rapidly in the assay.
# [3] = Microsomal stability assay (mouse); conditions: for Mouse microsomal stability: mouse microsomes; for microsomal CLint: mouse, liver microsomes
# [4] = Caco-2 permeability assay; type: in vitro ADME; conditions: human; for efflux ratio: Caco-2, pH 7.4
# MEC1 CLL cell line [5] = test: cells; design: alamarBlue (resazurin reduction) viability assay in MEC1 CLL cells; conditions: Homo sapiens, MEC1, 24 h; read-out: alamarBlue EC50 (uM) average
# Description: Defective p53-signalling increases genomic instability and drives tumour progression. A high frequency of p53 inactivation is found in relapsed, treatment-resistant, high risk CLL.[30] […] Owing to resource availability a subset of up to ten of these compounds was prioritised for further investigation. Compounds 2d, 2e, 2j, 2aa, 5a, 5d, 5e, 5f, 5ab and 6b were selected on the basis of reasons including ease of synthetic access, diversity across the chemical space probed and novelty. Those prepared under conditions (i)Scheme 1 (2d, 5a and 6b) were available on a scale and in a purity to directly permit follow-up studies, whereas compounds prepared under conditions (ii)Scheme 1 were prepared on a small scale so were resynthesised. These seven compounds (2e, 2j, 2aa, 5d, 5e, 5f and 5ab) were isolated on >30 mg scale in high purity and progressed to more following studies. Biological efforts at Sygnature Discovery (where differing to University of Birmingham) MEC1 cells were obtained from the American Type Culture Collection (Manassas, VA 20110 USA) and were routinely cultured in RPMI 1640 medium (Sigma-Aldrich) supplemented with 1% L-glutamine (Sigma-Aldrich), 1% Penicillin/Streptomycin (Sigma-Aldrich) and 10% FBS (Gibco). The MEC1 proliferation assay was conducted by performing a re-feed of the MEC1 cells 24 h prior to cell seeding. On the day of the assay, cells were seeded into a 384-well assay plate at a density of 12,500 cells/well in 25 μL of complete MEC1 medium. Compound treatment was performed on the day of cell seeding, with compounds prepared as duplicate compound response curves (final DMSO concentration of 0.6%). Post compound treatment, MEC1 assay plates were returned to a 37 °C/5% CO2 incubator for 24 h of incubation. Following compound treatment, cellular viability was determined by measuring reduction of alamarBlue® reagent (Invitrogen). alamarBlue® reagent (2.5 μL) was added to each assay well to give a 1:10 dilution of the neat stock and assay plates were incubated for 3 h at 37 °C/5% CO2. Reduction of alamarBlue® was determined using an Envision Xcite plate reader (Perkin Elmer) with an excitation wavelength of 560 nm set and an emission wavelength of 590 nm set. Cell viability was determined by normalising raw fluorescent data to a cell only high control and Parthenolide treated low control to provide percentage viability readout. Data was plotted and EC50 values extracted and reported EC50s represent an average of at least two independent assays.
# [6] = MEC1 cell line pEC50 minus calculated log P
# [7] = MEC1 cell line, alamarBlue assay, library screen, read-out: EC50 ave.
# [8] = first of two columns headed A to B
# [9] = second of two columns headed A to B
# [10] = Homo sapiens, MEC1, read-out: EC50 ave., MEC1 cell line, alamarBlue assay, library screen
# [11] = Homo sapiens, MEC1, MEC1 cell line, alamarBlue assay, library screen, read-out: EC50 ave.
compound,measurement,setting,value
Cc1nc(O)cc(C2CCNCC2)n1 [Amine 7],EC50,"MEC1 CLL cell line [1]; MEC1 cells, alamarBlue, 1, 5f and 7 compared in parallel, CalcuSyn",could not be determined
CCN(CCO)C[C@@H]1C(=O)O[C@H]2[C@H]1CC/C(C)=C/CC[C@@]1(C)O[C@H]21 [C00001],LipE pEC50–clog P,MEC1 CLL cell line [1]; [6],3.31
same,EC50,MEC1 CLL cell line [1]; [7],4.7 µM
same,Stability pH 7.4 T1/2,[2],13 min
CCn1cc(CN(C[C@@H]2C(=O)O[C@H]3[C@H]2CC/C(C)=C/CC[C@@]2(C)O[C@H]32)C(C)C)cn1 [C00002],LipE pEC50–clog P,MEC1 CLL cell line [1]; [6],1.61
same,EC50,MEC1 CLL cell line [1]; [7],5.6 µM
same,half-life,[2],> 2 h
same,Mouse microsomal stability,[3]; [8],828
same,Mouse microsomal stability,[3]; [9],2
COc1ccc(CN(C)C[C@@H]2C(=O)O[C@H]3[C@H]2CC/C(C)=C/CC[C@@]2(C)O[C@H]32)cc1OC [C00003],LipE pEC50–clog P,MEC1 CLL cell line [1]; [6],1.48
same,EC50,MEC1 CLL cell line [1]; [7],5.6 µM
same,Stability pH 7.4 T1/2,[2],107 min
C/C1=C\CC[C@@]2(C)O[C@@H]2[C@H]2OC(=O)[C@@H](CN(C)CCc3ccccc3)[C@@H]2CC1 [C00004],LipE pEC50–clog P,MEC1 CLL cell line [1]; [6],2.52
same,EC50,MEC1 CLL cell line [1]; [7],5.9 µM
same,Stability pH 7.4 T1/2,[2],76 min
C/C1=C\CC[C@@]2(C)O[C@@H]2[C@H]2OC(=O)[C@@H](CN3CCC(Oc4cccnc4)CC3)[C@@H]2CC1 [C00006],LipE pEC50–clog P,MEC1 CLL cell line [1]; [6],2.48
same,EC50,MEC1 CLL cell line [1]; [7],5.4 µM
same,half-life,[2],> 2 h
same,Mouse microsomal stability,[3]; [8],251
same,Mouse microsomal stability,[3]; [9],6
C/C1=C\CC[C@@]2(C)O[C@@H]2[C@H]2OC(=O)[C@@H](CN3CCC(O)(c4ccccc4)CC3)[C@@H]2CC1 [C00007],LipE pEC50–clog P,MEC1 CLL cell line [1],1.90
same,EC50,MEC1 CLL cell line [1]; [7],6 µM
same,half-life,[2],> 2 h
C/C1=C\CC[C@@]2(C)O[C@@H]2[C@H]2OC(=O)[C@@H](CN3CCC(OCc4cccnc4)CC3)[C@@H]2CC1 [C00009],LipE pEC50–clog P,MEC1 CLL cell line [1]; [6],2.29
same,EC50,MEC1 CLL cell line [1]; [7],7.6 µM
same,half-life,[2],> 2 h
same,efflux ratio,[4],0.8
same,Papp A→B,"[4]; Caco-2, pH 7.4, A to B",10.9 ×10⁻⁶ cm/s
same,Papp B→A,"[4]; Caco-2, pH 7.4, B to A",9.1 ×10⁻⁶ cm/s
same,Mouse microsomal stability,[3]; [8],128
same,Mouse microsomal stability,[3]; [9],11
C/C1=C\CC[C@@]2(C)O[C@@H]2[C@H]2OC(=O)[C@@H](CN(C)CCc3ccccc3)[C@@H]2CC1 [Compound 2aa],EC50,MEC1 CLL cell line [1]; [7],< 15 µM
same,half-life,[2],1.27 h
CC1=CCCC2(C)OC2C2OC(=O)C(CN(C)CCO)C2CC1 (stereo not drawn) [Compound 2c],EC50,MEC1 CLL cell line [1]; [10],< 15 µM
CCN(CCO)C[C@@H]1C(=O)O[C@H]2[C@H]1CC/C(C)=C/CC[C@@]1(C)O[C@H]21 [Compound 2d],EC50,MEC1 CLL cell line [1]; [7],< 15 µM
same,half-life,[2],0.217 h
CCn1cc(CN(C[C@@H]2C(=O)O[C@H]3[C@H]2CC/C(C)=C/CC[C@@]2(C)O[C@H]32)C(C)C)cn1 [Compound 2e],EC50,MEC1 CLL cell line [1]; [7],< 15 µM
same,stability in aqueous solution,[2],greater than two hours
same,microsomal CLint,[3],> 100 µL/min/mg
C/C1=C\CC[C@@]2(C)O[C@@H]2[C@H]2OC(=O)[C@@H](CN(CC3CC3)C(C)C)[C@@H]2CC1 [Compound 2f],EC50,MEC1 CLL cell line [1]; [11],< 15 µM
same,EC50,MEC1 CLL cell line [5],12.2 µM
C/C1=C\CC[C@@]2(C)O[C@@H]2[C@H]2OC(=O)[C@@H](CN(CCO)C3CCCCC3)[C@@H]2CC1 [Compound 2g],EC50,MEC1 CLL cell line [1]; [11],< 15 µM
same,EC50,MEC1 CLL cell line [5],10 µM
COc1ccc(CN(C)C[C@@H]2C(=O)O[C@H]3[C@H]2CC/C(C)=C/CC[C@@]2(C)O[C@H]32)cc1OC [Compound 2j],EC50,MEC1 CLL cell line [1]; [7],< 15 µM
same,half-life,[2],1.78 h
same,EC50,MEC1 CLL cell line [5],9.7 µM
CC1=CCCC2(C)OC2C2OC(=O)C(CSCCO)C2CC1 (stereo not drawn) [Compound 3],activity against the MEC1 CLL cell line,MEC1 CLL cell line [1]; result in words,lack of activity
C/C1=C\CC[C@@]2(C)O[C@@H]2[C@H]2OC(=O)[C@@H](CN3CCC(OCc4cccnc4)CC3)[C@@H]2CC1 [Compound 5ab],EC50,MEC1 CLL cell line [1]; [11],< 15 µM
same,stability in aqueous solution,[2],greater than two hours
same,microsomal CLint,[3],> 100 µL/min/mg
CC1=CCCC2(C)OC2C2OC(=O)C(CN3CCCCC3)C2CC1 (stereo not drawn) [Compound 5b],EC50,MEC1 CLL cell line [1]; [10],< 15 µM
same,stability in aqueous solution,[2],greater than two hours
C/C1=C\CC[C@@]2(C)O[C@@H]2[C@H]2OC(=O)[C@@H](CN3CCC(Oc4cccnc4)CC3)[C@@H]2CC1 [Compound 5d],EC50,MEC1 CLL cell line [1]; [7],< 15 µM
same,stability in aqueous solution,[2],greater than two hours
same,microsomal CLint,[3],> 100 µL/min/mg
C/C1=C\CC[C@@]2(C)O[C@@H]2[C@H]2OC(=O)[C@@H](CN3CCC(c4ccc(C(N)=O)cc4)CC3)[C@@H]2CC1 [Compound 5h],EC50,MEC1 CLL cell line [1]; [11],< 15 µM
same,EC50,MEC1 CLL cell line [5],13.8 µM
C/C1=C\CC[C@@]2(C)O[C@@H]2[C@H]2OC(=O)[C@@H](CN[C@@H](Cc3ccccc3)C(=O)O)[C@@H]2CC1 [Compound 6b],EC50,MEC1 CLL cell line [1]; [11],< 15 µM
same,stability in aqueous solution,[2],greater than two hours
same,efflux ratio,[4],2.7
same,microsomal CLint,[3],9 µL/min/mg
"C=C1C(=O)O[C@@H]2[C@H]3O[C@]3(C)CC/C=C(\C)CC[C@@H]12 [PTL, parthenolide]",EC50,"MEC1 CLL cell line [1]; Homo sapiens, MEC1, MEC1 cells, alamarBlue, 1, 5f and 7 compared in parallel, CalcuSyn, read-out: EC50",3.6 µM
same,EC50,"MEC1 CLL cell line [1]; Homo sapiens, MEC1, MEC1 cells, alamarBlue, direct comparison of 5f with PTL and DMAPT, n = 5, read-out: EC50",6.2 µM
